Reference: paper PMC9344893 (ACS Medicinal Chemistry Letters, 2022)

Legend:
panel of 10 human MTases = experiment: Human MTase screening, panel as a whole; format: biochemical; details: 10 μM
SARS-CoV-2 Nsp14 MTase = SARS-CoV-2 Nsp14 MTase (Severe acute respiratory syndrome coronavirus 2, UniProt P0DTD1); format: biochemical
A549/ACE2/TMPRSS2 cells = experiment: Cell viability assay; format: cell-based
[1] = test system: SARS-CoV-2 isolate USA-WA1/2020

Nc1ncnc2c1ncn2[C@@H]1O[C@H](CNS(=O)(=O)c2ccc3ccccc3c2)[C@@H](O)[C@H]1O [Compound 3]
inhibition of the set of human MTases (in words) (panel of 10 human MTases): minimal inhibition | fold more active than compound 1 (SARS-CoV-2 Nsp14 MTase): > 150 fold

Nc1ncnc2c1ncn2[C@@H]1O[C@H](CNS(=O)(=O)c2ccc3nc(Cl)ccc3c2)[C@@H](O)[C@H]1O [Compound 5]
fold reduction in inhibitory activity (SARS-CoV-2 Nsp14 MTase): 7 fold

CC(=O)O[C@@H]1[C@H](OC(C)=O)[C@@H](CNS(=O)(=O)c2ccc3ccccc3c2)O[C@H]1n1cnc2c(N)ncnc21 [Compound 8]
cytotoxicity at 100 μM (in words) (A549/ACE2/TMPRSS2 cells): minimal cytotoxicity

CC(=O)Nc1ncnc2c1ncn2[C@@H]1O[C@H](CNS(=O)(=O)c2ccc3ccccc3c2)[C@@H](OC(C)=O)[C@H]1OC(C)=O [Compound 9]
cytotoxicity at 100 μM (in words) (A549/ACE2/TMPRSS2 cells): minimal cytotoxicity

Nc1ncnn2c([C@@H]3O[C@H](CNS(=O)(=O)c4ccc5ccccc5c4)[C@@H](O)[C@H]3O)ccc12 [Compound 10]
therapeutic index (TI = CC50/EC50) ([1]; A549 AT cells): greater than 139

Nc1ncnc2c1ncn2[C@@H]1O[C@H](C[C@@H](N)CC[C@H](N)C(=O)O)[C@@H](O)[C@H]1O [sinefungin, reference compound]
antiviral activity (in words) [1]: failed to show any activity
